Assay [1] concerns the target catalytic domain (JH1, amino acids 808-1132) of human JAK2 (Homo sapiens, UniProt O60674). Briefly: JAK2 HTRF Enzyme Activity Assay. Format: biochemical. The conditions noted are these: ATP 30 µM, 60 minutes at 25° C.; read-out: V617F ENZ 30 UM.
Assay [2] addresses T1, catalytic domain (JH1, amino acids 826-1132) of human JAK2 (Homo sapiens, UniProt O60674).
T1 construct: catalytic domain (JH1, amino acids 826-1132) of human JAK2; FLAG (N); biotin (biotinylated); purchased Carna Biosciences 08-445-20N; host or cells: baculovirus expression system
Briefly: JAK2 LanthaScreen JH1 Binding Assay. Particulars: JAK2 JH1 1.5 nM, 50 nM tracer, 2 hours at 25° C.; read-out: JH1 BIND. The procedure, abridged:
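FLAG-tagged, biotinylated JAK2 JH1 (aa 826-1132, baculovirus-expressed; 1.5 nM) incubated 2 h at 25° C with compounds, 50 nM fluorescent tracer and 0.5 nM Streptavidin-Tb in Tris pH 7.5 buffer with MgCl2, Brij-35, BSA, EGTA, glycerol, DTT. Nonspecific binding defined with 2 mM ATP; TR-FRET IC50 from four-parameter fit.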

Assay [3] deals with T2, pseudo-kinase domain (JH2, amino-acids 536-812) of human Wild Type JAK2 (Homo sapiens, UniProt O60674, F794H/W659A/W777A).
T2 construct: pseudo-kinase domain (JH2, amino-acids 536-812 with 3 surface mutations W659A, W777A, F794H); His (C); purchased BPS Bioscience 79463; host or cells: baculovirus expression system
T2 sequence (O60674 536-812 W659A/W777A/F794H): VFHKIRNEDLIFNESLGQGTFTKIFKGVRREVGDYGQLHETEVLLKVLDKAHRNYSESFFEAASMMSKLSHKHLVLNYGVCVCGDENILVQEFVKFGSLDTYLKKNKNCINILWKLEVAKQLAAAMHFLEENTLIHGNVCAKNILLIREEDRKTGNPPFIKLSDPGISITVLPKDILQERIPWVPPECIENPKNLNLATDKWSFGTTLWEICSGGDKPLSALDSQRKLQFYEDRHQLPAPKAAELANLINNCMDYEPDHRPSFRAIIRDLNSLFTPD
Briefly: JAK2 LanthaScreen JH2-WT Binding Assay. The conditions noted are these: JAK2 JH2-WT 0.145 nM, 50 nM tracer, 1 hour at 25° C.; read-out: JH2 BIND WT. The procedure, abridged: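 TR-FRET tracer displacement: IC50 from four-parameter dose-response fit. Reaction: compound, 0.145 nM biotinylated JH2 protein from baculovirus, 0.25 nM streptavidin-Tb and 50 nM tracer, 1 h at 25° C, 50 mM Tris pH 7.5 buffer. 2 mM ATP gave non-specific binding.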

Assay [4] has as its target T3, pseudo-kinase domain (JH2, amino-acids 536-812) of human V617F mutant JAK2 (Homo sapiens, UniProt O60674, F794H/V617F/W659A/W777A).
T3 construct: pseudo-kinase domain (JH2, amino-acids 536-812 with 3 surface mutations W659A, W777A, F794H); His (C); purchased BPS Bioscience 79498; host or cells: baculovirus expression system
Briefly: JAK2 LanthaScreen JH2-V617F Binding Assay. Particulars: JAK2 JH2-V617F 0.26 nM, 50 nM tracer, 1 hour at 25° C.; read-out: JH2 BIND V617F. The procedure, abridged:
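Biotinylated His-Avi-tagged construct, baculovirus-expressed, at 0.26 nM; compounds competed against 50 nM fluorescent JH2 tracer with 0.25 nM streptavidin-Tb in Tris pH 7.5 buffer. Non-specific binding defined with 2 mM ATP. Read after 1 h at 25° C by TR-FRET; IC50 from four-parameter fit.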

The structures appear in SMILES notation. Some results are limits rather than exact numbers.

T1 sequence (O60674 826-1132): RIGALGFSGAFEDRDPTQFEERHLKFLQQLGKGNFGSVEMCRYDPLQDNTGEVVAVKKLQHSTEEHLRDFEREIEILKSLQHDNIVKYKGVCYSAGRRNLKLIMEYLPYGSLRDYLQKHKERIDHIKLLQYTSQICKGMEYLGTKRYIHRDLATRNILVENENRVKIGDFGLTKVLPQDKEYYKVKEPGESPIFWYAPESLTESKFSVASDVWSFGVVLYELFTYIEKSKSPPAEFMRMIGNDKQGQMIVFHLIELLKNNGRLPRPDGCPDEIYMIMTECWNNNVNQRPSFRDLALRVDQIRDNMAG
T3 sequence (O60674 536-812 V617F/W659A/W777A/F794H): as the sequence (O60674 536-812 W659A/W777A/F794H) above, with V82F counted along it
Sequence of catalytic domain (JH1, amino acids 808-1132) of human JAK2 (O60674 808-1132 limits assumed): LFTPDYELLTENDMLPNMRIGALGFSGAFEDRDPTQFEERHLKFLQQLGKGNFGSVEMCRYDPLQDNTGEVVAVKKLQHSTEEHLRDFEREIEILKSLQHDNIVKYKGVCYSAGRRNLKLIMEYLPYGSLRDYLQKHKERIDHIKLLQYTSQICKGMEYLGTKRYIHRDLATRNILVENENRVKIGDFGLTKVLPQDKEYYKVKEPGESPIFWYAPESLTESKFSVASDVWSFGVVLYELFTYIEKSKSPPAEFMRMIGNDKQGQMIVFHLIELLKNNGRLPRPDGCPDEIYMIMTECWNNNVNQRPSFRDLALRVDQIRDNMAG

`[2H]C([2H])([2H])n1c(=O)n([C@@H]2CC[C@@H](NC(=O)OC)C2)c2cc(Nc3cc(C(=O)N4CCC(C#N)CC4)c4cccc(C(F)(F)F)c4n3)ncc21` [Example 6, Methyl ((1R,3R)-3-(6-((4-(4-cyanopiperidine-1-carbonyl)-8-(trifluoromethyl)quinolin-2-yl)amino)-3-(methyl-d3)-2-oxo-2,3-dihydro-1H-imidazo[4,5-c]pyridin-1-yl)cyclopentyl)carbamate]: the IC50 in assay [1] was 100 to 500 nM; in assay [2] it was 100 to 500 nM; in assay [3], no more than 10 nM; in assay [4] it was no more than 10 nM.
Take `[2H]C([2H])([2H])n1c(=O)n([C@@H]2CC[C@](C)(NC(=O)C3CC3)C2)c2cc(Nc3ccc4c(n3)c(-c3cnn(C(F)(F)F)c3)nn4CC(C)(C)O)ncc21` [Example 119, N-((1S,3R)-3-(6-((1-(2-Hydroxy-2-methylpropyl)-3-(1-(trifluoromethyl)-1H-pyrazol-4-yl)-1H-pyrazolo[4,3-b]pyridin-5-yl)amino)-3-(methyl-d3)-2-oxo-2,3-dihydro-1H-imidazo[4,5-c]pyridin-1-yl)-1-methylcyclopentyl)cyclopropanecarboxamide]: the IC50 in assay [1] is greater than 1000 nM; in assay [2] it was greater than 1000 nM; in assay [3], no more than 10 nM; in assay [4], no more than 10 nM.
As to `[2H]C([2H])([2H])n1c(=O)n(C2CC3(CC(NC(=O)C4CC4)C3)C2)c2cc(Nc3cc(C(=O)N4CCOCC4)c4cccc(C(F)(F)F)c4n3)ncc21` (centres unmarked) [Example 90, N-(6-(3-(Methyl-d3)-6-((4-(morpholine-4-carbonyl)-8-(trifluoromethyl)quinolin-2-yl)amino)-2-oxo-2,3-dihydro-1H-imidazo[4,5-c]pyridin-1-yl)spiro[3,3]heptan-2-yl)cyclopropanecarboxamide], the IC50 in assay [1] was greater than 1000 nM; in assay [2], 100 to 500 nM; in assay [3] it was no more than 10 nM; in assay [4], no more than 10 nM.
Regarding `[2H]C([2H])([2H])n1c(=O)n([C@@H]2CC[C@@H](NC(=O)OC)C2)c2cc(Nc3cccc(C4CC4)n3)ncc21` [Example 50, Methyl ((1R,3R)-3-(6-((6-cyclopropylpyridin-2-yl)amino)-3-(methyl-d3)-2-oxo-2,3-dihydro-1H-imidazo[4,5-c]pyridin-1-yl)cyclopentyl)carbamate], the IC50 was greater than 1000 nM in assay [1], greater than 1000 nM in assay [2], no more than 10 nM in assay [3] and 10 to 100 nM in assay [4].
In the case of `COC(=O)N[C@@H]1CC[C@@H](n2c(=O)n(C)c3cnc(Nc4cc(NC(=O)[C@H]5CC5(F)F)cc(C5CCOCC5)c4)cc32)C1` [Example 17, Methyl ((1R,3R)-3-(6-((3-((R)-2,2-difluorocyclopropane-1-carboxamido)-5-(tetrahydro-2H-pyran-4-yl)phenyl)amino)-3-methyl-2-oxo-2,3-dihydro-1H-imidazo[4,5-c]pyridin-1-yl)cyclopentyl)carbamate], the IC50 in assay [1] was greater than 1000 nM; in assay [2], greater than 1000 nM; in assay [3] it was no more than 10 nM; in assay [4], no more than 10 nM.
For `[2H]C([2H])([2H])n1c(=O)n([C@@H]2CC[C@@H](NC(=O)OC)C2)c2cc(Nc3cc(CN4CC(C(F)F)C4)cc(-c4ncc(C(F)(F)F)s4)n3)ncc21` [Example 101, Methyl ((1R,3R)-3-(6-((4-((3-(difluoromethyl)azetidin-1-yl)methyl)-6-(5-(trifluoromethyl)thiazol-2-yl)pyridin-2-yl)amino)-3-(methyl-d3)-2-oxo-2,3-dihydro-1H-imidazo[4,5-c]pyridin-1-yl)cyclopentyl)carbamate], the IC50 in assay [1] was greater than 1000 nM; in assay [2] it was greater than 1000 nM; in assay [3] it was no more than 10 nM; in assay [4] it was no more than 10 nM.
With `COC(=O)N[C@@H]1CC[C@@H](n2c(=O)n(C)c3cnc(Nc4ccc5ncc(-c6cnn(C)c6)n5n4)cc32)C1` [Example 34, Methyl ((1R,3R)-3-(3-methyl-6-((3-(1-methyl-1H-pyrazol-4-yl)imidazo[1,2-b]pyridazin-6-yl)amino)-2-oxo-2,3-dihydro-1H-imidazo[4,5-c]pyridin-1-yl)cyclopentyl)carbamate], the IC50 in assay [1] was greater than 1000 nM; in assay [2], greater than 1000 nM; in assay [3], no more than 10 nM; in assay [4], no more than 10 nM.
On to `COC(=O)Nc1cc(Nc2cc3c(cn2)n(C)c(=O)n3C2CC3CC2CN3C(C)=O)cc(-c2cnn(C)c2)c1` (centres unmarked) [Example 40, Methyl (3-((1-(2-acetyl-2-azabicyclo[2.2.1]heptan-5-yl)-3-methyl-2-oxo-2,3-dihydro-1H-imidazo[4,5-c]pyridin-6-yl)amino)-5-(1-methyl-1H-pyrazol-4-yl)phenyl)carbamate], for which the IC50 in assay [1] was greater than 1000 nM; in assay [2] it was greater than 1000 nM; in assay [3], 10 to 100 nM; in assay [4] it was 10 to 100 nM.
For the compound `[2H]C([2H])([2H])n1c(=O)n([C@@H]2CC[C@@H](NC(=O)OC)C2)c2cc(Nc3cc(C4CCN(C(C)=O)CC4)cc(-c4ncc(C(F)(F)F)s4)n3)ncc21` [Example 105, Methyl ((1R,3R)-3-(6-((4-(1-acetylpiperidin-4-yl)-6-(5-(trifluoromethyl)thiazol-2-yl)pyridin-2-yl)amino)-3-(methyl-d3)-2-oxo-2,3-dihydro-1H-imidazo[4,5-c]pyridin-1-yl)cyclopentyl)carbamate], the IC50 in assay [1] is greater than 1000 nM; in assay [2] it was greater than 1000 nM; in assay [3], no more than 10 nM; in assay [4] it was no more than 10 nM.
In the case of `COC(=O)N[C@@H]1CC[C@@H](n2c(=O)n(C)c3cnc(Nc4ccnc(N5CCCCC5)n4)cc32)C1` [Example 66, Methyl ((1R,3R)-3-(3-methyl-2-oxo-6-((2-(piperidin-1-yl)pyrimidin-4-yl)amino)-2,3-dihydro-1H-imidazo[4,5-c]pyridin-1-yl)cyclopentyl)carbamate], the IC50 in assay [1] is greater than 1000 nM; in assay [2] it was greater than 1000 nM; in assay [3] it was no more than 10 nM; in assay [4] it was 10 to 100 nM.
As to `COC(=O)N[C@@H]1CC[C@@H](n2c(=O)n(C)c3cnc(Nc4ccn5nc(-c6cnn(C)c6)cc5n4)cc32)C1` [Example 35, Methyl ((1R,3R)-3-(3-methyl-6-((2-(1-methyl-1H-pyrazol-4-yl)pyrazolo[1,5-a]pyrimidin-5-yl)amino)-2-oxo-2,3-dihydro-1H-imidazo[4,5-c]pyridin-1-yl)cyclopentyl)carbamate], the IC50 is greater than 1000 nM in assay [1], greater than 1000 nM in assay [2], 10 to 100 nM in assay [3] and 10 to 100 nM in assay [4].
As for `[2H]C([2H])([2H])n1c(=O)n([C@@H]2CC[C@@H](NC(=O)OC)C2)c2cc(Nc3cc(-c4cnccc4C(F)(F)F)cc(-c4ccc(C(F)F)s4)n3)ncc21` [Example 154, Methyl ((1R,3R)-3-(6-((6′-(5-(difluoromethyl)thiophen-2-yl)-4-(trifluoromethyl)-[3,4′-bipyridin]-2′-yl)amino)-3-(methyl-d3)-2-oxo-2,3-dihydro-1H-imidazo[4,5-c]pyridin-1-yl)cyclopentyl)carbamate], the IC50 was greater than 1000 nM in assay [1], greater than 1000 nM in assay [2], no more than 10 nM in assay [3] and no more than 10 nM in assay [4].
Regarding `COC(=O)N[C@@H]1CC[C@@H](n2c(=O)n(C)c3cnc(Nc4cccc(C(=O)NC5CCCCC5)n4)cc32)C1` [Example 87, Methyl ((1R,3R)-3-(6-((6-(cyclohexylcarbamoyl)pyridin-2-yl)amino)-3-methyl-2-oxo-2,3-dihydro-1H-imidazo[4,5-c]pyridin-1-yl)cyclopentyl)carbamate], the IC50 in assay [1] was greater than 1000 nM; in assay [2], greater than 1000 nM; in assay [3] it was no more than 10 nM; in assay [4] it was 10 to 100 nM.
`[2H]C([2H])([2H])n1c(=O)n([C@@H]2CC[C@@H](NC(=O)OC)C2)c2cc(Nc3cc(C(C)(C)O)cc(-c4ncc(C(C)(C)O)s4)n3)ncc21` [Example 144, Methyl ((1R,3R)-3-(6-((4-(2-hydroxypropan-2-yl)-6-(5-(2-hydroxypropan-2-yl)thiazol-2-yl)pyridin-2-yl)amino)-3-(methyl-d3)-2-oxo-2,3-dihydro-1H-imidazo[4,5-c)pyridin-1-yl)cyclopentyl)carbamate]: the IC50 is greater than 1000 nM in assay [1], greater than 1000 nM in assay [2], no more than 10 nM in assay [3] and no more than 10 nM in assay [4].

These data come from US20240317744A1, “Bicyclic Ureas As Kinase Inhibitors” (Incyte Corporation, priority 2023, published 2024).
